From US10676470B2, “Inhibitors of lysine gingipain” (priority 2014, dated 2020)
“Also recorded” adds a separate entry of the source.

Experiments:
[1] = system: differentiated SHSY-5Y cells; assay: Gingipain-induced death of differentiated SH-SY5Y cells; format: cell-based; details: 100 nM Kgp and/or RgpB for 24 hours
Description: SH-SY5Y neuroblastoma cells were cultured and differentiated in the presence of 5 uM retinoic acid based on established methods [Saberi S., et al. Cell Mol Neurobiol 2013. 33: 747-751]. Differentiation into neuronal cells was verified by observation of neurite outgrowth. The differentiated cells were exposed to 100 nM Kgp and/or RgpB for 24 hours, in the presence or absence of Kgp inhibitors. Results were recorded using a digital microscope camera (FIG. 1C, FIG. 2C). Gingipains are toxic to cells while COR compounds prevent the cytotoxicity.

[2] = system: SHSY5Y cells; assay: P. gingivalis-induced toxicity in SHSY5Y cells; format: cell-based; details: SHSY5Y cells in vitro, compared to the antibiotic moxifloxacin
[3] = biological target: lysine gingipain (Kgp) (Porphyromonas gingivalis (strain ATCC 33277 / DSM 20709 / CIP 103683 / JCM 12257 / NCTC 11834 / 2561), UniProt B2RLK2); assay: Fluorogenic lysine gingipain inhibition assay; format: biochemical; details: 0.1 nM Kgp, 10 uM Z-His-Glu-Lys-MCA, 90 minutes, 37° C., pH 7.5
Description: The capacities of compounds of the present invention to inhibit the activity of lysine gingipain were measured in a fluorogenic assay similar to those described in Barret Biochemical Journal. 1980, 187(3), 909. The specific assay conditions were as follows. Buffer: pH=7.5, 100 mM Tris-HCl, 75 mM NaCl, 2.5 mM CaCl2, 10 mM cysteine, 1% DMSO after all additions. Protein: 0.1 nM Kgp, isolated from culture of Porphyromonas gingivalis, as described in Pike et al. J. Biol. Chem. 1994, 269(1), 406, and Potempa and Nguyen. Current Protocols in Protein Scienc. 2007, 21.20.1-21.20.27. Fluorogenic substrate: 10 uM Z-His-Glu-Lys-MCA. Time=90 minutes. Temperature=37° C. Each compound: 10 concentrations, starting at either 100 uM or 100 nM, with lower concentrations generated by serial 3-fold dilutions. By testing a range of concentrations for each compound, the concentration required to inhibit the activity of lysine gingipain by 50% (the “IC50”) was determined. Under the described assay conditions, signal-to-noise was excellent, and Z factor was greater than 0.6.
The inhibitory of activity of compounds described herein was tested against Kgp, RgpB, and trypsin.

[4] = system: abeta 42; assay: Brain abeta 42 ELISA in mice orally infected with P. gingivalis; format: in vivo; details: Balb/cJ mice, oral W83 P. gingivalis for 42 days; compound subcutaneously three times per day on days 21-42
From the text: Female Balb/cJ mice were obtained from Taconic and allowed to acclimate. 43-44 week old mice were challenged orally with 10^9 CFU W83 P. gingivalis or a P. gingivalis strain lacking expression of Kgp every other day for 42 days. Compound 2 or vehicle (2% DMSO) was given subcutaneously three times per day on days 21-42. On day 42 mice were sacrificed and the brain removed and frozen. A sample including hippocampal tissue was lysed in RIPA buffer with protease inhibitors and analyzed for Abeta42 expression with the Amyloid beta 42 ELISA Kit, Mouse (Life Technologies).

Compound	prevention of gingipain-induced cell death [1]	also measured
NCCCC[C@H](NC(=O)[C@H]1CCCN(C(=O)CCc2ccccc2)C1)C(=O)c1nc2ccccc2s1 [Compound 3, (3S)—N-[(1S)-5-amino-1-(1,3-benzothiazole-2-carbonyl)pentyl]-1-(3-phenylpropanoyl)piperidine-3-carboxamide]	does not	–
NCCCC[C@H](NC(=O)C1CCCC1)C(=O)COc1c(F)c(F)cc(F)c1F [Compound 43, N-[(1S)-5-amino-1-[2-(2,3,5,6-tetrafluorophenoxy)acetyl]pentyl]cyclopentanecarboxamide]	–	protection from P. gingivalis-induced toxicity [2]: protects SHSY5Y cells from P. gingivalis-induced toxicity
NCCCC[C@H](NC(=O)[C@@H]1CCCN(C(=O)CCc2ccccc2)C1)C(=O)c1nc2ccccc2s1 [Compound 4, (3R)—N-[(1S)-5-amino-1-(1,3-benzothiazole-2-carbonyl)pentyl]-1-(3-phenylpropanoyl)piperidine-3-carboxamide]	prevents gingipain-induced death	IC50 [3]: 1 to 10 nM; prevention of gingipain-induced cell death ([1]; listed as 2-(N—[N-(3-phenylpropanoyl)-(R)-nipecotinyl]-(R)-lysinyl)-benzothiazole): effective at preventing cell death
NCCCC[C@H](NC(=O)C1CCCCC1)C(=O)c1nc2ccccc2s1 [Compound 2, N-[(1S)-5-amino-1-(1,3-benzothiazole-2-carbonyl)pentyl]cyclohexanecarboxamide]	prevents gingipain-induced death; also recorded: more effective; also recorded: effective at preventing cell death	brain levels of abeta 42 (ELISA) [4]: resolved; also recorded: increase in abeta42 that was not apparently
NCCCC[C@H](NC(=O)c1ccccc1)C(=O)c1nc2ccccc2s1 [Compound 1, N-[(1S)-5-amino-1-(1,3-benzothiazole-2-carbonyl)pentyl]benzamide]	prevents gingipain-induced death; also recorded: effective at preventing cell death	–
